# Experiments:
# α1-antitrypsin = assay: End-point constant-temperature heat-induced polymerisation assay (non-denaturing PAGE); assay type: biochemical, human; settings: constant-temperature experiment, versus absence
# Protocol: Resistance to heat-induced polymerisation was also determined using an end-point constant-temperature assay. Plasma purified M and Z α1-antitrypsin were diluted to 0.2 mg/ml in PBS with 5% v/v glycerol, incubated with 10 μM Compound 1 (or with DMSO alone) for 2 hours and then heated in 20 μl aliquots for a further 4 hours in a thermal cycler with a 48-65° C. gradient applied across the plate. Samples were analysed on a 3-12% w/v acrylamide Bis-Tris Native-PAGE gel (Life Technologies).
# Polymerisation of α1-antitrypsin occurs from a transient intermediate state known as M*, that is readily populated by the Z variant. One of the hallmarks of M* is its recognition by environment-sensitive fluorescent reporter dyes. Thermal shift assays that make use of the dye SYPRO Orange report the stability of the protein native state against heat-induced unfolding. […] Native state stability can also be probed by equilibrium unfolding using chemical denaturants, where a peak in bis-ANS fluorescence corresponds with a maximally populated unfolding intermediate.
# M α1-antitrypsin = target: T1, M α1-antitrypsin (Homo sapiens, UniProt P01009); assay: Stoichiometry of inhibition against chymotrypsin, M α1-antitrypsin; assay type: biochemical; settings: M α1-antitrypsin pre-incubated with compound
# T1 construct: Alpha1-antitrypsin was purified from the plasma of ZZ and MM α1-antitrypsin homozygotes; from tissue; host or cells: plasma of MM homozygotes
# T1 sequence (P01009 25-418): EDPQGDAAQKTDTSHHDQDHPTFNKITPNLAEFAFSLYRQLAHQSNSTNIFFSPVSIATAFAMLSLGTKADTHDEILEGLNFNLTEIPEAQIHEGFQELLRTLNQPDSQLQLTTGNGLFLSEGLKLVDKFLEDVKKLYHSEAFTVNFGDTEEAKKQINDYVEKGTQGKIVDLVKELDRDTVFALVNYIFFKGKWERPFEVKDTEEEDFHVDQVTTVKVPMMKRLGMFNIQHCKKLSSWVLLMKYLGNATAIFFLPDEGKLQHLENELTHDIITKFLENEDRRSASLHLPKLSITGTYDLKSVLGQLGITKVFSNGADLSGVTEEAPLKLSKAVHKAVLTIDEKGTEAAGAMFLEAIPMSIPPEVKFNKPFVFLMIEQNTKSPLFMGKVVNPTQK
# Protocol: Mutations that interfere with the opening of […] or that perturb its interaction with the N-terminal portion of the reactive centre loop alter the ability of serpins to inhibit target proteases. The stoichiometry of inhibition (SI) was determined for M and Z α1-antitrypsin in discontinuous experiments against a model target protease, chymotrypsin. The pre-incubation of both variants with Compound 1 led to a >98% loss of protease inhibitory activity. […] To investigate whether this activity was consistent with action as a chemical chaperone, M and Z α1-antitrypsin were unfolded in vitro into 6 M guanidine hydrochloride, and rapidly refolded by snap dilution into denaturant-free buffer in the presence or absence of Compound 1.
# ChromLogD = assay type: physicochemical
# Solubility in FaSSIF = assay type: physicochemical
# Z α1-antitrypsin [1] = target: T2, Z α1-antitrypsin (Homo sapiens, UniProt P01009, E366K/V237A); assay: Intracellular Z α1-antitrypsin polymer formation in CHO-TET-ON-Z-A1AT cells (2C1 antibody); assay type: cell-based; design: expressed in transfected cells; host or cells: CHO Tet-On (CHO-K1) cells, doxycycline-induced
# T2 sequence (P01009 25-418 V237A/E366K): as the sequence (P01009 25-418) above, with V213A, E342K counted along it
# Protocol: CHO Tet-On cells that conditionally express Z α1-antitrypsin (Ordóñez A et al. Hepatology 2013; 57(5):2049-60.) were simultaneously treated with 0.5 μg/mL […] and various concentrations of compounds for 48 hours in 6 well plates. Cells without doxycycline or treated with 1% v/v DMSO acted as controls. The cells were lysed and intracellular Z α1-antitrypsin polymer was evaluated by ELISA sandwich with the 2C1 monoclonal antibody (Miranda et al. Hepatology. 2010; 52:1078-88). Newly synthesised α1-antitrypsin was evaluated by growing cells induced to express Z α1-antitrypsin in DMEM without methionine (Met) and cysteine (Cys) for 1 h and then labelling with 1.3 MBq of ^35S-Met/Cys for 15 min. The cells were then rinsed and incubated in chase medium containing an excess of unlabeled Met and Cys for 0, 2 and 6 h. After the chase period, the medium was collected and cells were harvested. α1-Antitrypsin from the medium and cell lysates was immunoprecipitated with a polyclonal α1-antitrypsin antibody or the 2C1 monoclonal antibody that detects polymers by splitting each sample in two equal parts. Radiolabelled proteins were re-suspended in SDS loading buffer, boiled for 5 min, separated by 10% w/v acrylamide SDS-PAGE, and quantified by autoradiography.
# CHO-K1 cells were incubated with/without doxycycline to express α1-antitrypsin and with or without the small molecule of interest, fixed with 3.7% v/v formaldehyde in PBS for 15 min, permeabilised with 0.1% v/v Triton X-100 in PBS and then blocked with 10% v/v FBS in PBS for 30 min. Cells were labelled with a rabbit polyclonal antibody to total α1-antitrypsin or the 2C1 monoclonal antibody that detects polymers followed by Texan red conjugated anti-rabbit or FITC labelled anti-mouse secondary antibodies respectively. Cells were imaged using an Axiovert 200 widefield fluorescence microscope (Carl Zeiss Microimaging Inc., Thornwood, NY).
# Its ability to block Z α1-antitrypsin polymerisation in the ER during folding was assessed by adding Compound 1 to CHO-TET-ON-Z-A1AT cells (Ordóñez et al. Hepatology. 2013; 57(5):2049-60) with simultaneous induction of Z α1-antitrypsin expression using doxycycline. […] To investigate whether in addition to blocking polymerisation, Compound 1 was also able to increase secretion of Z α1-antitrypsin, Z α1-antitrypsin expression was induced in CHO-TET-ON-Z-A1AT cells, Compound 1 was added, and the total Z α1-antitrypsin in the supernatant was measured by immunoassay after 6 hours.
# Z α1-antitrypsin [2] = target: T2, Z α1-antitrypsin; assay: Polymerisation of Z α1-antitrypsin in iPSC-derived hepatocytes (ZZ genotype); assay type: cell-based; design: a random insertion of the human Z α1-antitrypsin gene; from tissue; host or cells: liver and plasma of Z α1-antitrypsin transgenic mice (human Z transgene); settings: read-out: pIC50, polymerisation of Z α1-antitrypsin (converted)
# Protocol: In order to confirm that the potency and efficacy of Compound 1 in CHO-TET-ON-Z-A1AT was a reasonable estimate of what could be expected in hepatocytes with endogenous levels of expression, the effect of Compound 1 on the secretion and polymerisation of Z α1-antitrypsin was measured in iPSC-derived hepatocytes with the ZZ α1-antitrypsin genotype (Yusa et al. Nature. 2011; 478:391-4).
compound,measurement,setting,value
"CCC[C@@H](NC(=O)c1cccc2c1CC(=O)N2)[C@@H](O)c1cccc(F)c1C [Compound 1, N-[(1S,2R)-1-(3-fluoro-2-methylphenyl)-1-hydroxypentan-2-yl]-2-oxo-2,3-dihydro-1H-indole-4-carboxamide]",temperature at which oligomers are generated,α1-antitrypsin,higher temperatures
same,loss of protease inhibitory activity,M α1-antitrypsin,> 98%
same,ChromLogD (pH7.4),ChromLogD,3.8
same,solubility of amorphous drug substance in FaSSIF,Solubility in FaSSIF,good solubility
same,polymer formation in Z α1-antitrypsin expressing cells,"Z α1-antitrypsin [1]; 10 μM, CHO-TET-ON-Z-A1AT cells, tunicamycin experiment",completely abrogated
same,IC50,"Z α1-antitrypsin [1]; CHO-TET-ON-Z-A1AT cells, doxycycline induction, 2C1 antibody, read-out: pIC50, intracellular formation of Z α1-antitrypsin polymers (converted)",501 nM
same,intracellular formation of Z α1-antitrypsin polymers,"Z α1-antitrypsin [1]; CHO-TET-ON-Z-A1AT cells, in comparison with controls",completely blocked
same,EC50,Z α1-antitrypsin [1]; read-out: cellular activity at blocking Z α1-antitrypsin polymerisation (pEC50) (converted),501 nM
same,IC50,Z α1-antitrypsin [2],398 nM

# Source: patent publication US11919856B2, “Compounds” (UCL BUSINESS LTD, priority 2018, dated 2024)
